pIC50: −log10 of the molar value.
Legend:
[1] = tested on: myogenin (MYOG) mRNA; test: Myogenin (MYOG) mRNA expression by qPCR in FSHD myotubes (control gene); format: cell-based, Human
Method: (§1) For ASO or compound treatments cells were plate into 100 μL of Promocell growth medium containing ASO or compounds at the described concentrations.
(§2) On day 0, change to differentiation media. Remove plates from the incubator and aspirate the growth medium, Wash once with PBS, 100 μL for 96-wells and 1 mL for a 6-well plate, Add 100 μL or 2 mL of differentiation medium per well, 96- or 6-well respectively. Add antisense oligonucleotides or drug at the desire concentration and put back in the incubator. Fusion should start within day 1-2. Incubate for 3-4 days.
(§3) Cells were removed from the incubator and media aspirated. Quickly lysed following one of the following protocols: For lysis in 96-well plates direct lysis and one-step RT-Preamp qPCR protocol described below. For each 96-well prepare a mix containing: 19.5 μL Roche Realtime Ready lysis buffer, 0.25 μL RNAse inhibitor, 0.25 μL DNAseI (from Thermo not the included one in the kit). 20 μL of the mix was added to each well, mix 5 times and incubated 5 minutes at RT or alternatively shaken vigorously for 15 minutes. Lysis was observed under the microscope. Samples were frozen −80° C. at least for 15 minutes,
For qPCR, dilute 1:10 and use 2 μL for a 10 μL 1-step RT-qPCR reaction. For detection of GAPDH, RPLP0, TBP, MYOG, FRG1, MYH3, ACTN2, etc.). Per 10 μL reaction: RNA (1:10 dilution lysate) 2 μL, Fast Advanced Taqman Master Mix (2×) 5 μL, RT enzyme mix (40×) 0.25 μL, Taqman probe set (20×) 0.5 μL, H2O 2.25 μL. The following reaction protocol was run on the QuantStudio 7: 48° C. for 15 min, 50° C. for 2 min, 95° C. for 30 sec, 40×, 95° C. for 5 sec, 60° C. for 30 sec, then plates were read as specified by the manufacturer (Thermo). For 1-step RT-Preamplification used for detection of DUX4 downstream genes, i.e. MBD3L2, ZSCAN4, LEUTX, TRIM43, KHDC1L. POL2RA-VIC was used as Endogenous control). Per 10 μL reaction: RNA (1:10 dilution lysate) 2.25 μL, Taqman Pre-Amp Master Mix (2×) 5 μL, RT enzyme mix (40×) 0.25 μL, Taqman probe set (0.2×)*2.5 μL, * Pooling the TaqMan Assays: equal volumes of each 20× TaqMan® Gene Expression Assay, up to 100 assays were combined. For example, to pool 50 TaqMan assays, 10 μL of each assay were combined in a microcentrifuge tube. The pooled TaqMan assays were diluted using 1×TE buffer so that each assay is at a final concentration of 0.2×. […] The following program was run on the QuantStudio7: 50° C. for 2 min, 95° C. for 30 sec, 40×, 95° C. for 5 sec, 60° C. for 30 sec, plates were read as per the manufacturers specifications (Thermo).
(§4) After treatment, the control and treated cells were processed for realtime PCR quantification of MBD3L2 mRNA (DUX4 downstream gene) and myogenin (MYOG) mRNA (control) expression.

[2] = tested on: MBD3L2 mRNA (DUX4 downstream gene); test: MBD3L2 mRNA expression by qPCR in FSHD myotubes; format: cell-based, Human
Method: Cell Plating: Performed three days prior to treatment, 10000 cells were plated per well on gelatinized 96-well plates, or 100000 cells on gelatinized 6-well plates.
as §1, §2, §3
For qPCR, dilute 1:10 and use 2 μL for a 10 μL 1-step RT-qPCR reaction. For detection of GAPDH, RPLP0, TBP, MYOG, FRG1, MYH3, ACTN2, etc.). Per 10 μL reaction: RNA (1:10 dilution lysate) 2 μL, Fast Advanced Taqman Master Mix (2×) 5 μL, RT enzyme mix (40×) 0.25 μL, Taqman probe set (20×) 0.5 μL, H2O 2.25 μL. The following reaction protocol was run on the QuantStudio 7: 48° C. for 15 min, 50° C. for 2 min, 95° C. for 30 sec, 40×, 95° C. for 5 sec, 60° C. for 30 sec, then plates were read as specified by the manufacturer (Thermo). For 1-step RT-Preamplification used for detection of DUX4 downstream genes, i.e. MBD3L2, ZSCAN4, LEUTX, TRIM43, KHDC1L. POL2RA-VIC was used as Endogenous control). Per 10 μL reaction: RNA (1:10 dilution lysate) 2.25 μL, Taqman Pre-Amp Master Mix (2×) 5 μL, RT enzyme mix (40×) 0.25 μL, Taqman probe set (0.2×)*2.5 μL, * Pooling the TaqMan Assays: equal volumes of each 20× TaqMan® Gene Expression Assay, up to 100 assays were combined. For example, to pool 50 TaqMan assays, 10 μL of each assay were combined in a microcentrifuge tube. The pooled TaqMan assays were diluted using 1×TE buffer so that each assay is at a final concentration of 0.2×. For the above example, add 500 μL of 1×TE buffer to the pooled TaqMan assays for a total final volume of 1 mL. The QuantStudio7 protocol was used 48° C. 15 min, 95° C. 10 min, 10 cycles: 95° C. 15 sec, 60° C. 4 min, 4° C. infinite. Samples were then diluted to 50 μL and continue with the qPCR step. Per 10 μL reaction: Preamp dilution 2 μL, Fast Advanced Taqman Master Mix (2×) 5 μL, Taqman probe set (20×) 0.5 μL, H2O 2.5 μL. When multiplexing the volume was adjusted to 10 μL total). The following program was run on the QuantStudio7: 50° C. for 2 min, 95° C. for 30 sec, 40×, 95° C. for 5 sec, 60° C. for 30 sec, plates were read as per the manufacturers specifications (Thermo).
as §4

Cn1c(=O)c(Oc2ccc(F)cc2F)cc2cnc(NC(CCO)CCO)nc21 [Pamapimod, 6-(2,4-difluorophenoxy)-2-((1,5-dihydroxypentan-3-yl)amino)-8-methylpyrido[2,3-d]pyrimidin-7(8H)-one]
MYOG mRNA expression [1]: no impact
MBD3L2 mRNA expression ([2]; FSHD1 and FSHD2 primary patient myoblast lines, 1 μM): reduction of MBD3L2
MBD3L2 downstream gene mRNA levels normalized to POLR2A mRNA ([2]; FSHD myotubes, 10, 100, and 1000 nM vs DMSO): dose-dependently reduced
pIC50 ([2]; Homo sapiens, Myotube, read-out: IC50, reduction of MBD3L2 mRNA expression, FSHD myotubes, realtime PCR): > 8.00
MBD3L2 expression levels ([2]; myotubes of four FSHD patient lines FTCE-016, -020, -197, -196, 1 μM): reduced in all of the FSHD lines
